# Source: PMC6927504, “Screening of House Dust from Chinese Homes for Chemicals with Liver X Receptors Binding Activities and Characterization of Atherosclerotic Activity Using an in Vitro Macrophage Cell Line and ApoE^−/− Mice” (Environmental Health Perspectives, 2019)
# Test system: ABCG1
# Test: qRT-PCR of ABCG1 in peritoneal macrophages isolated from exposed C57BL/6 mice
# Format: in vivo, mouse
# Settings: 200 mg/kg BW oral gavage for 7 d, control set to 1, p<0.01
# Description: Total RNA was isolated from RAW264.7 cells and mouse peritoneal macrophages using TRIzol reagent according to the manufacturer’s instructions. Then a Nanovue Plus™ spectrophotometer (GE Healthcare Life Science) was used to analyze the concentration, quality, and purity of the RNA. Total RNA ( 1μg ) was mixed with oligo deoxythymine (dT) ( 1μL ) at 70°C for 5 min and then combined with a mixture containing Moloney murine leukemia virus (MMLV) reverse transcriptase ( 1μL ), deoxy-ribonucleoside triphosphate (dNTP) ( 1.25μL ), Recombinant RNasin® Ribonuclease Inhibitor (Promega) ( 0.65μL ), and MMLV buffer ( 5μL ) at 42°C for 60 min. The SYBR® Green PCR Kit (TOYOBO) was used for RT-PCR analysis. Real-time fluorescence detection was performed using the StepOnePlus™ sequence detection system (Applied Biosystems). […]
# All experiments related to animals were approved by the institutional animal care and use committee of Peking University and followed the guidelines for animal experiments of the university as well as for experimental animals in China. […] Body weight (BW) was measured every week during the dosing period. […] Considering that this study assessed the effects of short-term exposure to TPHP, whereas humans are exposed to TPHP over a lifelong period, the present study used exposure doses that were higher than that of human exposure from house dust. […]
smiles,measurement,value
"O=P(Oc1ccccc1)(Oc1ccccc1)Oc1ccccc1 [TPHP, triphenyl phosphate]",ABCG1 gene expression in peritoneal macrophages relative to control,0.30±0.08 fold
